Measured values: patent US20260109674A1, “ALLOSTERIC MODULATION OF MUSCARINIC ACETYLCHOLINE RECEPTOR EFFICACY” (The University of Toledo, priority 2022, published 2026)
Marks after values point to notes of the source that are not given here.

Legend:
[1] = system: wild-type zebrafish larvae; assay: Maximum tolerated concentration (MTC) determination in zebrafish larvae; assay type: in vivo, Danio rerio; conditions: after 24-hour exposure; Table 3
Protocol: Determination of maximum tolerated concentration was completed by placing 5 days post fertilization (dpf) wild-type zebrafish larvae in a 24 well plate at 6 fish per well, and one compound concentration per well. […] Death was determined by the absence of heartbeat. Additional endpoints were used to assess toxicity at non-lethal concentrations such as startle capacity (poke stimulus), abnormalities in swimming behavior (loss of dorsoventral balance), and gross morphological deformities (bent body). […] The MTC determination was used to select three doses of each compound (low, medium, high dose) to be used in behavioral assays.

[2] = system: wild-type zebrafish larvae; assay: General locomotor assay in zebrafish larvae (locomotor activity, repetitive behaviors); assay type: in vivo, Danio rerio; conditions: Table 3; test concentration not given; N = 12
Protocol: Five days post fertilization (dpf) zebrafish larvae were exposed to a range of nonlethal concentrations of the compounds in a 24-well plate with appropriate controls. The movement of each larval zebrafish was monitored with the Noldus behavior recording system (Noldus Information Technology, Leesburg VA) and quantified using EthoVision® XT 15 software (Noldus Information Technology, Leesburg VA). The plate was immediately placed in the incubator for a 30-minute exposure period. After 30 minutes, the plate was transferred to the Noldus system and swimming behavior was recorded in 100% light for 30 minutes to measure spontaneous swimming behavior. The light was switched off for 10 minutes (dark period) and then switched on for 10 minutes (light period), which was then repeated for two additional cycles. In total, the larvae were exposed to three cycles of alternating 10-minute dark and light periods (100% darkness-to-100% light). […]
All data for exposure and the behavioral end points were analyzed by one-way ANOVA (factor: drug conc) followed by a Dunnett's multiple comparisons test for post hoc significance between drug concentration and control group. Statistically significant differences are noted as follows: *, p<0.05; **, p<0.01; ***, p<0.001.

[3] = target: T1, M1 muscarinic receptors expressed in CHO cells (Homo sapiens, UniProt P11229); assay: [3H]-arachidonic acid release screen with and without ACh and modulator; assay type: cell-based; conditions: for Modulation of ACh activity (in words): [3H]AA release; for Modulation of ACh activity (in words) / Intrinsic agonist activity (in words): modulator 10 μM; for Intrinsic agonist activity (in words): without ACh
T1 construct: expressed in transfected cells; host or cells: CHO (CHO-hM1, stably transfected)
T1 sequence (P11229 1-460): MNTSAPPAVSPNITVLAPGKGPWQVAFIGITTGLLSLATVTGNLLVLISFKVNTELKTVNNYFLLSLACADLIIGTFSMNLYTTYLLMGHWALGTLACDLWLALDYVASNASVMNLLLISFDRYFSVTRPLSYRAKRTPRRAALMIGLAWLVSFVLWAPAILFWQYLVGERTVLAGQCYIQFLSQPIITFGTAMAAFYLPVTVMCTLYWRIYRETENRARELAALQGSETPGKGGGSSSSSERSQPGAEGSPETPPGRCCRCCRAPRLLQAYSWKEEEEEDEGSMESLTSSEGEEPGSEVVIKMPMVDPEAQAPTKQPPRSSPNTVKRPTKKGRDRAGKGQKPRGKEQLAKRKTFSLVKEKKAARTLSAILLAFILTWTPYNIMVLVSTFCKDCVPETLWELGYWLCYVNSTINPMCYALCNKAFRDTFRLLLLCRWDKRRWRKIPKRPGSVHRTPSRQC
Protocol: CHO cells expressing human M1 muscarinic receptors were cultured at 37° C. in a 5% CO2 atmosphere in F12 medium supplemented with 5% fetal bovine serum, 100 units/mL penicillin, and 100 μg/mL streptomycin.
Measurement of [^3H]AA release was performed. Stably transfected CHO-hM1 or CHO-hM3 cells were seeded on 24-well plates (Greiner Bio-One GmbH, Frickenhausen, Germany) at a density of 5.0×10^4 cells/well in 0.5 ml of F-12 medium. Cells were incubated until they attached (approximately 3 h), followed by the addition of [^3H]AA to a final concentration of 0.05 μCi of [^3H]AA per well. The cells were then grown for 16 to 20 h before the assay was performed. [^3H]AA release was measured in Eagle's basal medium with 20 mM HEPES and 2 mg/ml fatty acid-free bovine serum albumin (EM-BSA). Cells were rinsed twice with EM-BSA, followed by the addition of EM-BSA media containing experimental agents and incubated for 1 h at 37° C. The assay was terminated by aspiration of the media, and the amount of [^3H]AA released was determined by liquid scintillation counting (Beckman-Coulter LS6500).
For some assays, pretreatment with phenoxybenzamine (POB) was employed, as indicated, to reduce the number of available receptors per cell. Stock POB was made up at 10 mM in ethanol and stored at −20° C. Each well was pretreated with 0.5 ml of the appropriate concentration in PBS with 1 mM CaCl2 and 1 mM MgCl2 (PBS++) for 30 min at 37° C., followed by 5 washes with PBS++. After pretreatment, the normal protocol was followed as above.
Tabulated [^3H]AA release data are represented as a fraction of maximal release in the presence of 100 μM ACh or as the fraction of release elicited by the appropriate concentration of ACh alone, as indicated dose-response curves were normalized to the maximal response of ACh without allosteric ligand. Some response curves were analyzed using the empirical four-parameter equation: […]
Disintegration per minute (DPM) values for a single compound were obtained in triplicate, and each compound was evaluated on three separate 24-well plates. The mean values for each condition from each of the three 24-well plates were used for the statistical analysis. The baseline mean was subtracted from each value, then normalized to the mean response produced by 100 μM ACh (set at 1.0). Statistical analyses were completed on the normalized values via one-way repeated measures ANOVA with Tukey's post hoc test. Statistically significant differences are noted as follows: *, p<0.05; **, p<0.01; ***, p<0.001.

[4] = 10 μM modulator, Table 4, N = 4-5

Row | SMILES | Maximum Tolerated Concentration [1] | Ratio of response of ACh with modulator to response of ACh alone, 0.1 μM ACh ([3]; 10 μM modulator, Table 1) | Ratio of response of ACh with modulator to response of ACh alone, 100 μM ACh ([3]; 10 μM modulator, Table 1) | Stimulation of [3H]AA release, No ACh (fraction of stimulation above the control) ([3]; 10 μM modulator, Table 1) | further results
1 | CCCCc1oc2ccccc2c1C(=O)c1cc(I)c(OCCN(CC)CC)c(I)c1 [Amiodarone, reference compound] | 10 µM | – | – | – | –
2 | COc1ccc(Cn2cc(C(=O)O)c(=O)c3ccccc32)cc1 [BQCA, reference compound] | – | 2.34 ± 0.23 | 0.86 ± 0.03 | 0.37 ± 0.04 | Angular Velocity [2]: 141.8 ± 14.9* % of control; Total Distance Moved [2]: 72.0 ± 10.0* % of control; Variance of Turn Angle [2]: 119.6 ± 7.0* % of control; Ratio of response of ACh with modulator to response of ACh alone, 0.1 μM ACh ([3]; 3 μM modulator, Table 1): 2.43 ± 0.19; Ratio of response of ACh with modulator to response of ACh alone, 100 μM ACh ([3]; 3 μM modulator, Table 1): 0.99 ± 0.02; Stimulation of [3H]AA release, No ACh (fraction of stimulation above the control) ([3]; 3 μM modulator, Table 1): 0.06 ± 0.06
3 | CCCCc1oc2ccccc2c1C(=O)c1cc(I)c(OCCNCC)c(I)c1.Cl [Compound 1, (2-butylbenzofuran-3-yl)(4-(2-(ethylamino)ethoxy)-3,5-diiodophenyl)methanone hydrochloride] | 3 µM | 0.75 ± 0.08 | 0.67 ± 0.02 | 0.22 ± 0.01 | Modulation of ACh activity (in words) [3]: weaker efficacy PAM relative to amiodarone
4 | CCCCc1oc2ccccc2c1C(=O)c1cc(I)c(OCCN(CC)C(C)=O)c(I)c1 [Compound 5a, N-(2-(4-(2-butylbenzofuran-3-carbonyl)-2,6-diiodophenoxy)ethyl)-N-ethylacetamide] | 10 µM | 2.22 ± 0.26 | 1.58 ± 0.03 | 0.17 ± 0.04 | Increase of mAChR activity compared to treatment with ACh alone ([3]; 10 μM modulator): 70%; Intrinsic agonist activity (in words) [3]: significant intrinsic agonist activity
5 | CCCCc1oc2ccccc2c1C(=O)c1cc(I)c(OCCN(CC)C(=O)c2ccccc2)c(I)c1 [Compound 5b, N-(2-(4-(2-butylbenzofuran-3-carbonyl)-2,6-diiodophenoxy)ethyl)-N-ethylbenzamide] | 10 µM | 1.34 ± 0.05 | 1.26 ± 0.05 | 0.02 ± 0.01 | Increase of mAChR activity compared to treatment with ACh alone ([3]; 10 μM modulator): 80%; Intrinsic agonist activity (in words) [3]: lacked intrinsic activity
6 | CCCCc1oc2ccccc2c1C(=O)c1ccc(OC)cc1 [Compound 6a, (2-butylbenzofuran-3-yl)(4-methoxyphenyl)methanone] | 3 µM | 1.18 ± 0.06 | 1.03 ± 0.03 | 0.05 ± 0.01 | –
7 | CCCCc1oc2ccccc2c1C(=O)c1cc(I)c(OC)c(I)c1 [Compound 6b, (2-butylbenzofuran-3-yl)(3,5-diiodo-4-methoxyphenyl)methanone] | 30 µM | 1.6 ± 0.07 | 1.32 ± 0.08 | 0.06 ± 0.01 | Modulation of ACh activity (in words) [3]: increased ACh activity
8 | CCCCc1oc2ccccc2c1C(=O)c1ccc(OCCN(CC)CC)cc1 [Compound 6c, (2-butylbenzofuran-3-yl)(4-(2-(diethylamino)ethoxy)phenyl)methanone] | 3 µM | 0.46 ± 0.17 | 1.05 ± 0.05 | 0.05 ± 0.04 | Modulation of ACh activity (in words) [3]: decreased ACh activity
9 | COc1ccc(CN2C(=O)C(=O)c3ccccc32)cc1I [Compound 8b, 1-(3-iodo-4-methoxybenzyl)indoline-2,3-dione] | 10 µM | 1.81 ± 0.04 | 1.24 ± 0.01 | 0.08 ± 0.01 | –
10 | COc1ccc(CN2C(=O)C(=O)c3ccccc32)cc1Br [Compound 8d, 1-(3-bromo-4-methoxybenzyl)indoline-2,3-dione] | 100 µM | 1.31 ± 0.06 | 0.87 ± 0.01 | 0.04 ± 0.01 | –
11 | COc1c(Cl)cc(CN2C(=O)C(=O)c3ccccc32)cc1Cl [Compound 8e, 1-(3,5-dichloro-4-methoxybenzyl)indoline-2,3-dione] | 100 µM | 2.13 ± 0.11 | 1.28 ± 0.07 | 0.08 ± 0.01 | –
12 | COc1ccc(CN2C(=O)C(=O)c3ccccc32)cc1Cl [Compound 8f, 1-(3-chloro-4-methoxybenzyl)indoline-2,3-dione] | 10 µM | 1.49 ± 0.03 | 1.13 ± 0.04 | 0.08 ± 0.02 | –
13 | COc1c(I)cc(Cn2cc(C(=O)O)c(=O)c3ccccc32)cc1I [GK-1-47] | – | – | – | – | Ratio of response of ACh with modulator to response of ACh alone, 0.1 μM ACh [3, 4]: 2.46 ± 0.13; Ratio of response of ACh with modulator to response of ACh alone, 100 μM ACh [3, 4]: 1.33 ± 0.04; Stimulation of [3H]AA release, No ACh (fraction of stimulation above the control) [3, 4]: 0.24 ± 0.01
14 | O=C1C(=O)N(Cc2ccc(Br)cc2)c2ccccc21 [VU0119498, reference compound] | – | 1.22 ± 0.34 | 1.04 ± 0.07 | 0.07 ± 0.00 | –
